4 compounds from patent US20240182874A1, “NOVEL FAMILY OF DNA POLYMERASES ACCEPTING 2-AMINOADENINE AND REJECTING ADENINE IN THEIR SUBSTRATES” (THE EUROPEAN SYNDICATE OF SYNTHETIC SCIENTISTS AND …, priority 2021, published 2024) can be followed below.

One may read the Km as the substrate concentration at which the rate is half of its maximum. In general, kcat refers to the maximal rate divided by the concentration of active sites.

Common to all, as to assay: Single nucleotide extension assay, steady-state kinetics (Table 2)
Series [1] has as its target T1, Acinetobacter phage SH-Ab 15497 DpoZ DNA polymerase (SEQ ID NO: 113), His-tagged, 3′-exonuclease-disabled mutant D74A (Acinetobacter phage SH-Ab 15497, UniProt A0A2H5BHJ5, D74A).
T1 construct: 3'-exonuclease-disabled D74A
T1 sequence (A0A2H5BHJ5 1-624 D74A): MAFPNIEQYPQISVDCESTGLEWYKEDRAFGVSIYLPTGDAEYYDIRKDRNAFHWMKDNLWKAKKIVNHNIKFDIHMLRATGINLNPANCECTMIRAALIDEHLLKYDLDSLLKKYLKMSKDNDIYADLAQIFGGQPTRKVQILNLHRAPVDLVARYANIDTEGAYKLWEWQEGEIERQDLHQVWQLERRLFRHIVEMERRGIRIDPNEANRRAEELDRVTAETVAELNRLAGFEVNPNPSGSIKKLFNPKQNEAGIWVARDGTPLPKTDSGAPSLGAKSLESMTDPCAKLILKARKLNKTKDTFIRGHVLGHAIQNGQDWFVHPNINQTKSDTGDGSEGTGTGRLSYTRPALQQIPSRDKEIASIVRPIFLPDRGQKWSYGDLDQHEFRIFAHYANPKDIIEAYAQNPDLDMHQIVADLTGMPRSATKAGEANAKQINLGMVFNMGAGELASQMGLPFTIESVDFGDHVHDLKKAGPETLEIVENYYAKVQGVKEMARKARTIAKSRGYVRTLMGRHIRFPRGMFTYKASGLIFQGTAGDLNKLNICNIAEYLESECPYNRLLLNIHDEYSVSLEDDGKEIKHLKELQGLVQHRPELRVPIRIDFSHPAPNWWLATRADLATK
In kind it is biochemical. To be noted: for Efficiency: catalytic efficiency, average and standard deviation of three independent assays. The text has this:
(§1) DpoZ genes from each bacteriophage were also cloned in the P15A plasmid pVDM18 previously described (Pezo et al., Sci Rep. 3, 1359 (2013)). Exonuclease mutants were constructed by site directed mutagenesis of pVDM18 Pol constructs using X1379/X1380 oligonucleotides for Vibrio phage PhiVC8 DNA pol (D85A mutation), X1865/X1866 for Arthrobacter phage Wayne DNA pol (D146A mutation), X1990/X1991 for Acinetobacter phage SH-Ab-15497 (D74A mutation), X1867/X1868 for Gordonia phage Ghobes DNA pol (D109A mutation) and X1601/X1602 for Klenow fragment of E. coli DNA pol I (D101A mutation). Mutations were verified by full sequencing of the constructs. These mutants were also sub-cloned into the pGEN452 vector downstream a His6-tag for protein expression
(§2) Kinetic parameters were determined in a single nucleotide extension assay using DNA polymerase mutants devoid of 3′exonuclease activity, followed by denaturing polyacrylamide gel electrophoresis of the extended products essentially as described (O'Flaherty and Guengerich, Current Protocols in Nucleic Acid Chemistry. 59 (2014)). The fluorescent oligonucleotide X1648 was annealed to X1649 template. Duplex substrates were used at 500 nM concentration in reaction buffer (20 mM TrisHCl pH7, 200 mM NaCl, 2 mM DTT, 5 mM MgCl2), with different enzymes concentrations and various dNTPs concentrations. Reactions were performed at 37° C. for variable times in conditions to remain in the confines of the steady-state kinetic model e.g. remaining below 20% of product formation (Creighton et al., Methods in Enzymology (Elsevier, 1995; https://linkinghub.elsevier.com/retrieve/pii/0076687995620214), vol. 262, pp. 232-256).
(§3) • The Km affinity constant and the kcat turnover number of 3′-exonuclease-disabled and His-tagged versions of DpoZ polymerases from Vibrio phage PhiVC8 and Acinetobacter phage SH-Ab 15497 are shown in comparison with PolA polymerase (Klenow fragment) from E. coli. The average and standard deviation of three independent assays carried out under the same conditions are given for each experiment.

Series [2] deals with T2, E. coli PolA polymerase (Klenow fragment of E. coli DNA pol I, SEQ ID NO: 234), His-tagged, 3′-exonuclease-disabled mutant D101A (Escherichia coli, UniProt P00582, D424A).
T2 construct: 3'-exonuclease-disabled
Format: biochemical. The settings on record: for Efficiency: catalytic efficiency, average and standard deviation of three independent assays.
Text: as §1, §2, §3

The target in series [3] is T3, Vibrio phage PhiVC8 DpoZ DNA polymerase (SEQ ID NO: 112), His-tagged, 3′-exonuclease-disabled mutant D85A (Vibrio phage phiVC8, UniProt G3FFN8, D85A).
T3 construct: 3'-exonuclease-disabled D85A
T3 sequence (G3FFN8 1-633 D85A): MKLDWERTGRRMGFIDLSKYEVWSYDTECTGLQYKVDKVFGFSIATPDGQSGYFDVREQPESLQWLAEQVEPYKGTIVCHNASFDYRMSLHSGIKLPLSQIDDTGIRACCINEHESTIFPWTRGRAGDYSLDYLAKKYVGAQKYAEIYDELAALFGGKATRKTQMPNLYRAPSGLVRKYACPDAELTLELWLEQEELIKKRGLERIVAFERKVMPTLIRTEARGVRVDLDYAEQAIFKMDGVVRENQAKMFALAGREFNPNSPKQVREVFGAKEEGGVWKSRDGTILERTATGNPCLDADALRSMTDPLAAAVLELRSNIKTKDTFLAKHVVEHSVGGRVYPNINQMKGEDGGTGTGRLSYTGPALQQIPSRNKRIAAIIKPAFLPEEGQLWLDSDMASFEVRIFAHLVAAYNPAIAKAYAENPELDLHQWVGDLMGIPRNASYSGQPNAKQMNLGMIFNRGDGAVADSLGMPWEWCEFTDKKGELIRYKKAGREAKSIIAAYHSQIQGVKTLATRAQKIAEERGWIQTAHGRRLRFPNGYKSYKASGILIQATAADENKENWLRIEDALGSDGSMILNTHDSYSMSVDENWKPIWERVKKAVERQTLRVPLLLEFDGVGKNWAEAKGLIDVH
Format: biochemical. The settings on record: for Efficiency: catalytic efficiency, average and standard deviation of three independent assays.
Text: as §1, §2, §3

Series [4] deals with T4, Nc1ncnc2c1ncn2[C@H]1C[C@H](O)[C@@H](COP(=O)(O)OP(=O)(O)OP(=O)(O)O)O1.
T4 construct: 3'-exonuclease-disabled D85A
Format: biochemical, Vibrio phage PhiVC8. The settings on record: other: 37° C., pH7, 500 nM duplex X1648/X1649, average and standard deviation of three independent assays, pH 7.0.
Text: as §1, §2, §3

In series [5] the test system is T5, Nc1nc(N)c2ncn([C@H]3C[C@H](O)[C@@H](COP(=O)(O)OP(=O)(O)OP(=O)(O)O)O3)c2n1.
T5 construct: 3'-exonuclease-disabled D85A
In kind it is biochemical, Vibrio phage PhiVC8. To be noted: other: 37° C., pH7, 500 nM duplex X1648/X1649, average and standard deviation of three independent assays, pH 7.0.
Text: as §1, §2, §3

For series [6], the system named is T6, Nc1nc(N)c2ncn([C@H]3C[C@H](O)[C@@H](COP(=O)(O)OP(=O)(O)OP(=O)(O)O)O3)c2n1.
T6 construct: 3'-exonuclease-disabled D74A
In kind it is biochemical, Acinetobacter phage SH-Ab 15497. The settings on record: other: 37° C., pH7, 500 nM duplex X1648/X1649, average and standard deviation of three independent assays, pH 7.0.
Text: as §1, §2, §3

Series [7] deals with T7, Nc1ncnc2c1ncn2[C@H]1C[C@H](O)[C@@H](COP(=O)(O)OP(=O)(O)OP(=O)(O)O)O1.
T7 construct: 3'-exonuclease-disabled D74A
Format: biochemical, Acinetobacter phage SH-Ab 15497. The settings on record: other: 37° C., pH7, 500 nM duplex X1648/X1649, average and standard deviation of three independent assays, pH 7.0.
Text: as §1, §2, §3

T2 sequence (P00582 with tags, fused parts or gaps D424A): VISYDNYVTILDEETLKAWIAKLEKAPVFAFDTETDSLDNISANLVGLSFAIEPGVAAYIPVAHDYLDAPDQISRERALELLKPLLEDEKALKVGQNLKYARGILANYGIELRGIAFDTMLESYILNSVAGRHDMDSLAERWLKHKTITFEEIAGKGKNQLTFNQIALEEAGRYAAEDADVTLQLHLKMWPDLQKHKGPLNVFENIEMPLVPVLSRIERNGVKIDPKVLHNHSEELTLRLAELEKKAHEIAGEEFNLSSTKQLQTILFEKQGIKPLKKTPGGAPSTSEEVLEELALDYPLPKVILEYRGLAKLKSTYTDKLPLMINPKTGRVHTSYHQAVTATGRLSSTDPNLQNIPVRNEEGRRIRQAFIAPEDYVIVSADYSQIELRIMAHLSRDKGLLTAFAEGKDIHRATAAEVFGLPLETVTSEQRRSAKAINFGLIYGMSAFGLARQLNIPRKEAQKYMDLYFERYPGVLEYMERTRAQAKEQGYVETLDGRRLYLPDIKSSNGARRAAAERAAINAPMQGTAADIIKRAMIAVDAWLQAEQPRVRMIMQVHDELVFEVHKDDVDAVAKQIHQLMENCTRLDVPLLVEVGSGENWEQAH

Take `Nc1ncnc2c1ncn2[C@H]1C[C@H](O)[C@@H](COP(=O)(O)OP(=O)(O)OP(=O)(O)O)O1` [dATP, deoxyadenosine 5′-triphosphate]: the Efficiency in series [1] stood at 0.008 ± 0.001 mM⁻¹ s⁻¹; in series [2], 30.40 ± 5.82 mM⁻¹ s⁻¹; in series [3], 0.048 ± 0.017 mM⁻¹ s⁻¹.

`Nc1nc(N)c2ncn([C@H]3C[C@H](O)[C@@H](COP(=O)(O)OP(=O)(O)OP(=O)(O)O)O3)c2n1` [dZTP, 2-amino-2′-deoxyadenosine 5′-triphosphate]: the figures for the “factor in catalytic efficiency with dZTP relative to dATP” value in series [1], in series [2] and in series [3] were 29 -fold, 0.5 -fold and 90 -fold, respectively. Moreover, the results for the Efficiency in series [1], in series [2] and in series [3] were 0.23 ± 0.06 mM⁻¹ s⁻¹, 17.73 ± 4.96 mM⁻¹ s⁻¹ and 4.35 ± 1.56 mM⁻¹ s⁻¹, respectively. Besides, the “kcat^(Z)/kcat^(A)” value in series [1] (kcat dZTP / kcat dATP) was 1.81; in series [2] (kcat dZTP / kcat dATP), 0.68; in series [3] (kcat dZTP / kcat dATP), 2.00.

In the case of “Vibrio phage PhiVC8 DpoZ DNA polymerase (SEQ ID NO: 112), His-tagged, 3′-exonuclease-disabled mutant D85A (Vibrio phage phiVC8; D85A)”, in series [4], the Km is 4500 ± 1380 µM and the kcat is 0.21 ± 0.05 s⁻¹. Further, in series [5], the Km worked out at 100 ± 20 µM and the kcat turned out to be 0.42 ± 0.14 s⁻¹.

For the compound “Acinetobacter phage SH-Ab 15497 DpoZ DNA polymerase (SEQ ID NO: 113), His-tagged, 3′-exonuclease-disabled mutant D74A (Acinetobacter phage SH-Ab 15497; D74A)”, in series [6], the Km was 1300 ± 360 µM and the catalytic constant (kcat) turned out to be 0.29 ± 0.07 s⁻¹. Further, in series [7], the Km was 21400 ± 3400 µM and the kcat was 0.16 ± 0.01 s⁻¹.
